Test results as given in ChEMBL document CHEMBL4673242, “Penithoketone and Penithochromones A-L, Polyketides from the Deep-Sea-Derived Fungus Penicillium thomii YPGA3” (J Nat Prod, 2020).
pIC50: −log10 of the molar value.

System: MCF7
Assay: Cytotoxicity against human MCF7 cells assessed as reduction in cell viability at 50 uM after 72 hrs by MTT assay relative to control
Assay type: functional
Conditions: not given

| Compound | Activity [%] |
| --- | --- |
| O=C(O)CCCCCCc1cc(=O)c2c(O)cc(O)cc2o1 | <30 |
| COC(=O)CCCCCCc1cc(=O)c2c(OC)cc(O)cc2o1 | <30 |
| COc1cc(OC)c2c(=O)cc(CCCCC(=O)O)oc2c1 | <30 |
| COC(=O)CCCCCCc1cc(=O)c2c(O)cc(O)cc2o1 | <30 |
| COC1=C(O)C(=O)c2c(O)cccc2C1=O | >50 |
| COC1=CC(=O)c2c(O)cccc2C1=O | >50 |
| COc1cc(OC)c2c(=O)cc(CCCCCCC(=O)O)oc2c1 | <30 |
| COc1cc(O)c2c(=O)cc(CCCCCCC(=O)O)oc2c1 | <30 |
| COC(=O)CCCc1cc(=O)c2c(OC)cc(O)cc2o1 | <30 |
| COC(=O)CCCCc1cc(=O)c2c(OC)cc(OC)cc2o1 | <30 |
| COC1=C(O)C(=O)c2c(O)cccc2[C@@]1(OC)[C@@H](C)C1=CC(=O)OC1 | >50 |
| COC(=O)CCCCCCc1cc(=O)c2c(O)cc(OC)cc2o1 | <30 |
| COC(=O)CCCCCCc1cc(=O)c2c(OC)cc(OC)cc2o1 | <30 |
| COC(=O)CCc1cc(=O)c2c(OC)cc(OC)cc2o1 | <30 |
| COc1cc(OC)c2c(=O)cc(CCCC/C=C/C(=O)O)oc2c1 | <30 |

System: MDA-MB-468
Assay: Cytotoxicity against human MDA-MB-468 cells assessed as reduction in cell viability at 50 uM after 72 hrs by MTT assay relative to control
Assay type: functional
Conditions: not given

| Compound | Activity [%] |
| --- | --- |
| O=C(O)CCCCCCc1cc(=O)c2c(O)cc(O)cc2o1 | <30 |
| COC(=O)CCCCCCc1cc(=O)c2c(OC)cc(O)cc2o1 | <30 |
| COc1cc(OC)c2c(=O)cc(CCCCC(=O)O)oc2c1 | <30 |
| COC(=O)CCCCCCc1cc(=O)c2c(O)cc(O)cc2o1 | <30 |
| COC1=C(O)C(=O)c2c(O)cccc2C1=O | >50 |
| COC1=CC(=O)c2c(O)cccc2C1=O | >50 |
| COc1cc(OC)c2c(=O)cc(CCCCCCC(=O)O)oc2c1 | <30 |
| COc1cc(O)c2c(=O)cc(CCCCCCC(=O)O)oc2c1 | <30 |
| COC(=O)CCCc1cc(=O)c2c(OC)cc(O)cc2o1 | <30 |
| COC(=O)CCCCc1cc(=O)c2c(OC)cc(OC)cc2o1 | <30 |
| COC1=C(O)C(=O)c2c(O)cccc2[C@@]1(OC)[C@@H](C)C1=CC(=O)OC1 | >50 |
| COC(=O)CCCCCCc1cc(=O)c2c(O)cc(OC)cc2o1 | <30 |
| COC(=O)CCCCCCc1cc(=O)c2c(OC)cc(OC)cc2o1 | <30 |
| COC(=O)CCc1cc(=O)c2c(OC)cc(OC)cc2o1 | <30 |
| COc1cc(OC)c2c(=O)cc(CCCC/C=C/C(=O)O)oc2c1 | <30 |

System: MCF7
Assay: Cytotoxicity against human MCF7 cells assessed as reduction in cell viability after 72 hrs by MTT assay
Assay type: functional, cell-based
Conditions: MCF7, 72 h

| Compound | pIC50 |
| --- | --- |
| COC1=C(O)C(=O)c2c(O)cccc2C1=O | < 4.30 |
| COC1=CC(=O)c2c(O)cccc2C1=O | 4.96 |
| COC1=C(O)C(=O)c2c(O)cccc2[C@@]1(OC)[C@@H](C)C1=CC(=O)OC1 | 4.68 |

System: MDA-MB-468
Assay: Cytotoxicity against human MDA-MB-468 cells assessed as reduction in cell viability after 72 hrs by MTT assay
Assay type: functional, cell-based
Conditions: MDA-MB-468, 72 h

| Compound | pIC50 |
| --- | --- |
| COC1=C(O)C(=O)c2c(O)cccc2C1=O | 4.42 |
| COC1=CC(=O)c2c(O)cccc2C1=O | 5.31 |
| COC1=C(O)C(=O)c2c(O)cccc2[C@@]1(OC)[C@@H](C)C1=CC(=O)OC1 | 4.82 |

System: LNCaP C4-2B
Assay: Cytotoxicity against human enzalutamide-resistant LNCaP C4-2B cells assessed as reduction in cell viability at 50 uM after 72 hrs by MTT assay relative to control
Assay type: functional
Conditions: not given

| Compound | Activity [%] |
| --- | --- |
| O=C(O)CCCCCCc1cc(=O)c2c(O)cc(O)cc2o1 | <30 |
| COC(=O)CCCCCCc1cc(=O)c2c(OC)cc(O)cc2o1 | <30 |
| COc1cc(OC)c2c(=O)cc(CCCCC(=O)O)oc2c1 | <30 |
| COC(=O)CCCCCCc1cc(=O)c2c(O)cc(O)cc2o1 | <30 |
| COC1=C(O)C(=O)c2c(O)cccc2C1=O | >50 |
| COC1=CC(=O)c2c(O)cccc2C1=O | >50 |
| COc1cc(OC)c2c(=O)cc(CCCCCCC(=O)O)oc2c1 | <30 |
| COc1cc(O)c2c(=O)cc(CCCCCCC(=O)O)oc2c1 | <30 |
| COC(=O)CCCc1cc(=O)c2c(OC)cc(O)cc2o1 | <30 |
| COC(=O)CCCCc1cc(=O)c2c(OC)cc(OC)cc2o1 | <30 |
| COC1=C(O)C(=O)c2c(O)cccc2[C@@]1(OC)[C@@H](C)C1=CC(=O)OC1 | >50 |
| COC(=O)CCCCCCc1cc(=O)c2c(O)cc(OC)cc2o1 | <30 |
| COC(=O)CCCCCCc1cc(=O)c2c(OC)cc(OC)cc2o1 | <30 |
| COC(=O)CCc1cc(=O)c2c(OC)cc(OC)cc2o1 | <30 |
| COc1cc(OC)c2c(=O)cc(CCCC/C=C/C(=O)O)oc2c1 | <30 |

System: LNCaP C4-2B
Assay: Cytotoxicity against human LNCaP C4-2B cells assessed as reduction in cell viability after 72 hrs by MTT assay
Assay type: functional, cell-based
Conditions: not given

| Compound | pIC50 |
| --- | --- |
| COC1=C(O)C(=O)c2c(O)cccc2C1=O | 4.39 |
| COC1=CC(=O)c2c(O)cccc2C1=O | 5.19 |
| COC1=C(O)C(=O)c2c(O)cccc2[C@@]1(OC)[C@@H](C)C1=CC(=O)OC1 | 5.04 |

System: LNCaP C4-2B
Assay: Cytotoxicity against human enzalutamide-resistant LNCaP C4-2B cells assessed as reduction in cell viability after 72 hrs by MTT assay
Assay type: functional, cell-based
Conditions: not given

| Compound | pIC50 |
| --- | --- |
| COC1=C(O)C(=O)c2c(O)cccc2C1=O | < 4.30 |
| COC1=CC(=O)c2c(O)cccc2C1=O | 4.89 |
| COC1=C(O)C(=O)c2c(O)cccc2[C@@]1(OC)[C@@H](C)C1=CC(=O)OC1 | 4.85 |

System: RAW264.7
Assay: Inhibition of LPS-induced NO production in mouse RAW264.7 cells at 50 uM relative to control
Assay type: functional
Conditions: not given

| Compound | inhibition at 50 µM [%] |
| --- | --- |
| O=C(O)CCCCCCc1cc(=O)c2c(O)cc(O)cc2o1 | < 30 |
| COC(=O)CCCCCCc1cc(=O)c2c(OC)cc(O)cc2o1 | < 30 |
| COc1cc(OC)c2c(=O)cc(CCCCC(=O)O)oc2c1 | < 30 |
| COC(=O)CCCCCCc1cc(=O)c2c(O)cc(O)cc2o1 | < 30 |
| COC1=C(O)C(=O)c2c(O)cccc2C1=O | < 30 |
| COC1=CC(=O)c2c(O)cccc2C1=O | < 30 |
| COc1cc(OC)c2c(=O)cc(CCCCCCC(=O)O)oc2c1 | < 30 |
| COc1cc(O)c2c(=O)cc(CCCCCCC(=O)O)oc2c1 | < 30 |
| COC(=O)CCCc1cc(=O)c2c(OC)cc(O)cc2o1 | < 30 |
| COC(=O)CCCCc1cc(=O)c2c(OC)cc(OC)cc2o1 | < 30 |
| COC1=C(O)C(=O)c2c(O)cccc2[C@@]1(OC)[C@@H](C)C1=CC(=O)OC1 | < 30 |
| COC(=O)CCCCCCc1cc(=O)c2c(O)cc(OC)cc2o1 | < 30 |
| COC(=O)CCCCCCc1cc(=O)c2c(OC)cc(OC)cc2o1 | < 30 |
| COC(=O)CCc1cc(=O)c2c(OC)cc(OC)cc2o1 | < 30 |
| COc1cc(OC)c2c(=O)cc(CCCC/C=C/C(=O)O)oc2c1 | < 30 |

System: LNCaP C4-2B
Assay: Cytotoxicity against human LNCaP C4-2B cells assessed as reduction in cell viability at 50 uM after 72 hrs by MTT assay relative to control
Assay type: functional
Conditions: not given

| Compound | Activity [%] |
| --- | --- |
| O=C(O)CCCCCCc1cc(=O)c2c(O)cc(O)cc2o1 | <30 |
| COC(=O)CCCCCCc1cc(=O)c2c(OC)cc(O)cc2o1 | <30 |
| COc1cc(OC)c2c(=O)cc(CCCCC(=O)O)oc2c1 | <30 |
| COC(=O)CCCCCCc1cc(=O)c2c(O)cc(O)cc2o1 | <30 |
| COC1=C(O)C(=O)c2c(O)cccc2C1=O | >50 |
| COC1=CC(=O)c2c(O)cccc2C1=O | >50 |
| COc1cc(OC)c2c(=O)cc(CCCCCCC(=O)O)oc2c1 | <30 |
| COc1cc(O)c2c(=O)cc(CCCCCCC(=O)O)oc2c1 | <30 |
| COC(=O)CCCc1cc(=O)c2c(OC)cc(O)cc2o1 | <30 |
| COC(=O)CCCCc1cc(=O)c2c(OC)cc(OC)cc2o1 | <30 |
| COC1=C(O)C(=O)c2c(O)cccc2[C@@]1(OC)[C@@H](C)C1=CC(=O)OC1 | >50 |
| COC(=O)CCCCCCc1cc(=O)c2c(O)cc(OC)cc2o1 | <30 |
| COC(=O)CCCCCCc1cc(=O)c2c(OC)cc(OC)cc2o1 | <30 |
| COC(=O)CCc1cc(=O)c2c(OC)cc(OC)cc2o1 | <30 |
| COc1cc(OC)c2c(=O)cc(CCCC/C=C/C(=O)O)oc2c1 | <30 |
